What is called Km is the concentration of substrate that gives half-maximal velocity.

Where a name gives a salt, the structure may show the parent alone.

One assay concerns monomethylamine-oxidizing enzyme. The experiment in a line: Substrate specificity and Km of the purified monomethylamine-oxidizing enzyme. The assay is classed as biochemical, Bacillus sp. N - 104 (FERM BP-59). Conditions: pH 9.0. The method, then: […] To 1.0 ml of this substrate solution, is added 0.1 ml of an enzyme solution diluted with the same buffer solution and the mixture is subjected to reaction for 10 min. at 30° C. By adding 1 ml of 5N KOH solution, the enzymatic reaction is stopped. By this enzymatic reaction, monomethylamine is oxidatively decomposed to produce formaldehyde, ammonia and hydrogen peroxide. Then, to the reaction mixture is added 1 ml of 0.5 N hydrochloric acid solution containing 0.5% 4-amino-3-hydrazino-5-mercapto-1,2,4-triazole (to be abbreviated as AHMT hereinafter) and the mixture is subjected to reaction for 15 min. at 30° C. To the reaction mixture is added 1 ml of 0.2 N potassium hydroxide solution containing 0.75% KIO4 and the mixture is thoroughly stirred to develop a color. The colored solution is poured into a transparent cell and its absorption at 550 nm is measured to quantitatively determine the above produced formaldehyde.
As to `CN` [Monomethylamine], the Km was 62 µM.

The assay is the same for the next values; noted with them: substrate concentration 10 mM; activity for monomethylamine taken as 100.
With `N=C(N)NCCCCN` [Agmatine], the Relative activity is given as 1%.

Consider `NCc1ccccc1` [Benzylamine], for which the Relative activity turned out to be 1%.

With `NCN` [Diaminomethane], the Relative activity came out at 16%.

Turning to `CNC` [Dimethylamine], the Relative activity is reported as 0%.

The molecule `NCCO` [Ethanolamine] yielded a Relative activity of 1%.

The molecule `CCN` [Ethylamine] registered a Relative activity of 90%.

For the molecule `NCCN` [Ethylenediamine], the Relative activity was 0%.

`NCCc1c[nH]cn1` [Histamine]: the Relative activity was 1%.

`NO` [Hydroxylamine]: the Relative activity was 0%.

Regarding `CN` [Monomethylamine], the Relative activity is given as 100%.

Molecule `NCCCCN` [Putrescine] registered a Relative activity of 0%.

`CN(C)C` [Trimethylamine]: the Relative activity worked out at 0%.

As to `NCCc1ccc(O)cc1` [Tyramine], the Relative activity is on record as 0%.

`CC(C)CN` [i-Butylamine]: the Relative activity was determined as 2%.

`CC(C)N` [i-Propylamine]: the Relative activity turned out to be 0%.

In the case of `CCCCCN` [n-Amylamine], the Relative activity came out at 19%.

Molecule `CCCCN` [n-Butylamine] had a Relative activity of 18%.

With `CCCCCCN` [n-Hexylamine], the Relative activity was found to be 10%.

On to `CCCN` [n-Propylamine], for which the Relative activity worked out at 60%.

For another assay the test system is unchanged.
Assay: not given
Type of assay: biochemical, Bacillus sp. N - 104 (FERM BP-59). Conditions: 1 mM inhibitor, 10 min treatment at 30° C., pH 9; activity without inhibitor taken as 100. Here is the method: Monomethylamine hydrochloride as substrate is dissolved into 0.1 M KH2 PO4 -Na2 B4 O7 buffer solution (pH 7) and the solution is ordinally adjusted to 1 mM concentration of substrate. To 1.0 ml of this substrate solution, is added 0.1 ml of an enzyme solution diluted with the same buffer solution and the mixture is subjected to reaction for 10 min. at 30° C. By adding 1 ml of 5N KOH solution, the enzymatic reaction is stopped. By this enzymatic reaction, monomethylamine is oxidatively decomposed to produce formaldehyde, ammonia and hydrogen peroxide. Then, to the reaction mixture is added 1 ml of 0.5 N hydrochloric acid solution containing 0.5% 4-amino-3-hydrazino-5-mercapto-1,2,4-triazole (to be abbreviated as AHMT hereinafter) and the mixture is subjected to reaction for 15 min. at 30° C. To the reaction mixture is added 1 ml of 0.2 N potassium hydroxide solution containing 0.75% KIO4 and the mixture is thoroughly stirred to develop a color. The colored solution is poured into a transparent cell and its absorption at 550 nm is measured to quantitatively determine the above produced formaldehyde.
With `[Cl][Hg][Cl]` [HgCl2], the Residual activity is on record as 0%.

`NC(=O)CI` [iodoacetamide] returned a Residual activity of 2.2%.

On to `O=C(O)c1cc[c]([Hg][Cl])cc1` [p-chloromercuribenzoic acid], for which the Residual activity was found to be 0.7%.

Regarding `NNC(N)=O` [semicarbazide hydrochloride], the Residual activity is recorded as 0%.

The same assay, now with this note: 5 mM inhibitor, 10 min treatment at 30° C., pH 9; activity without inhibitor taken as 100.
In turn, `c1cnc2c(c1)ccc1cccnc12` [O-phenanthroline] gave a Residual activity of 70.9%.

`CCN(CC)C(=S)[S-].[Na+]` [sodium diethyldithiocarbamate]: the Residual activity is given as 59.3%.

Staying with this assay, now noted: pH 9.
`Oc1cccc2cccnc12` [8-oxyquinoline] gave a Residual activity of 34.0%.

On to `O=C(O)CI` [monoiodoacetic acid], for which the Residual activity worked out at 34.0%.

(Values after patent US4503147A (priority 1981, dated 1985).)
